Read-outs that look alike come from different tables or passages of the source. Square brackets hold non-standard residues; d marks the D form. Peptide text beside a SMILES is read from it. * marks the point of attachment. DOTA = O=C(O)CN1CCN(CC(=O)O)CCN(CC(=O)*)CCN(CC(=O)O)CC1; Phe(3,4,5-F3) = N[C@@H](Cc1cc(F)c(F)c(F)c1)C(=O)O; Phe(4-CF3) = N[C@@H](Cc1ccc(C(F)(F)F)cc1)C(=O)O; Phe(F5) = N[C@@H](Cc1c(F)c(F)c(F)c(F)c1F)C(=O)O; Phe(3,4-F2) = N[C@@H](Cc1ccc(F)c(F)c1)C(=O)O; Phe(4-Ac) = CC(=O)c1ccc(C[C@H](N)C(=O)O)cc1; Phe(4-CN) = N#Cc1ccc(C[C@H](N)C(=O)O)cc1; Phe(3-F) = N[C@@H](Cc1cccc(F)c1)C(=O)O; Phe(4-F) = N[C@@H](Cc1ccc(F)cc1)C(=O)O; 1Nal = N[C@@H](Cc1cccc2ccccc12)C(=O)O; NMeF = CN[C@@H](Cc1ccccc1)C(=O)O; NMeNle = CCCC[C@H](NC)C(=O)O; Sar = CNCC(=O)O
Target: T1, human full-length CCK-2 receptor (Homo sapiens, UniProt P32239)
T1 construct: stably transfected to over-express the human full-length CCK-2 receptor (A431-CCK-2R); expressed in transfected cells
T1 sequence (P32239 1-447): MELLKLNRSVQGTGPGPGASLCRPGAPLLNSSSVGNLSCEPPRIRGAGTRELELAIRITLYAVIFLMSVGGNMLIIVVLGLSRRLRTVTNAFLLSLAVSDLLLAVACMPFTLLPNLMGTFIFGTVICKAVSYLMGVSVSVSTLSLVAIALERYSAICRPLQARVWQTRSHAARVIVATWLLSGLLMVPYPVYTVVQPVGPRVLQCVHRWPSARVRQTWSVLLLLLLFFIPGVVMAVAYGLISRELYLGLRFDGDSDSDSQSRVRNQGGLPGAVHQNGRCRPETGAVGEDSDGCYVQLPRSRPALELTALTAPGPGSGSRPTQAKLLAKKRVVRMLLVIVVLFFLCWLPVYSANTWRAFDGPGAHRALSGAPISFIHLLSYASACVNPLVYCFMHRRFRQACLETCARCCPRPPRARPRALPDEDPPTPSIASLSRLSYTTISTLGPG
Test: Competitive ligand binding against [^177Lu]Lu-DOTA-CP04 in A431-CCK-2R cells
Description: CCK-2 receptor binding experiments were conducted using A431 (human epidermoid carcinoma) cells stably transfected to over-express the human full-length CCK-2 receptor (A431-CCK-2R). As a negative control, A431 cells stably transfected with an empty vector were analysed simultaneously (A431-EV). A431 cells were maintained in DMEM (Gibco, Australia) media supplemented with 10% foetal calf serum and 250 μg/mL G418 as described previously (Aloj L, et al., J Nucl Med., 2004, Mar; 45(3), 485-94). The affinity of peptides for the CCK-2R was evaluated using competitive binding assays against [^177Lu]Lu-DOTA-CP04 in A431-CCK-2R cells. Briefly, 48 h before the experiment cells were plated at a density of 650,000 cells per well in 6 well plates. On the day of the experiment the peptides were diluted in DMEM supplemented with 1% foetal calf serum to at least 7 different concentrations (0-400 nM) and approximately 50,000 cpm of [^177Lu]Lu-DOTA-CP04 was added to each dilution. Cells were washed twice in ice-cold binding buffer (DMEM supplemented with 1% foetal calf serum) and resuspended in 1.5 mL of the pre-prepared compound mix before being incubated at 37° C. for 1 h. Post-incubation the media was removed and kept for analysis (unbound fraction) and the cells were washed twice in ice-cold binding buffer, which was pooled with the unbound fraction. Finally, 1 M NaOH was added to the cells and allowed to incubate for 5 min before lysates were collected (bound fraction). A small volume of lysate was kept aside to determine protein concentration using the Pierce® BCA protein assay kit (Thermo Fisher, Australia). All samples were analysed using the Perkin Elmer 2480 Wizard2™ gamma counter (PerkinElmer, Massachusetts, USA) and were normalised according to protein concentration. Half-maximal inhibitory concentrations (IC50) were determined using nonlinear regression calculated using GraphPad Prism Software (GraphPad Software, California, USA).
The compounds were evaluated for their ability to disrupt the binding between CCK-2 receptor (CCK-2R) and [^177Lu]Lu-DOTA-CP04 using the methodology described above and compared to comparative example-2 (FIG. 2; Table 5).

[1] = modified peptides based on Peptide C (Table 4), read-out: IC50
[2] = ^natGa chelated DOTA-compounds based on Peptide C (Table 5), read-out: IC50

SMILES | IC50 [1] [nM] | further results
CCCC[C@@H](C(=O)N[C@@H](CC(=O)O)C(=O)N[C@@H](Cc1cc(F)c(F)c(F)c1)C(N)=O)N(C)C(=O)[C@H](Cc1c[nH]c2ccccc12)NC(=O)CN(C)C(=O)[C@H](Cc1ccc(O)cc1)NC(=O)[C@H](C)NC(=O)[C@@H](CCC(=O)O)NC(=O)[C@@H](CCC(=O)O)NC(=O)[C@@H](CCC(=O)O)NC(=O)[C@@H](C)NC(=O)[C@@H](CCC(=O)O)NC(=O)[C@H](N)CCC(=O)O [N] (H-[dE][dE][dA][dE][dE][dE]AY[Sar]W[NMeNle]D[Phe(3,4,5-F3)]-NH2; N-terminus assumed) | 0.444 ± 0.032 | –
CCCC[C@@H](C(=O)N[C@@H](CC(=O)O)C(=O)N[C@@H](Cc1ccc(F)cc1)C(N)=O)N(C)C(=O)[C@H](Cc1c[nH]c2ccccc12)NC(=O)CN(C)C(=O)[C@H](Cc1ccc(O)cc1)NC(=O)[C@H](C)NC(=O)[C@@H](CCC(=O)O)NC(=O)[C@@H](CCC(=O)O)NC(=O)[C@@H](CCC(=O)O)NC(=O)[C@@H](C)NC(=O)[C@@H](CCC(=O)O)NC(=O)[C@H](N)CCC(=O)O [O] (H-[dE][dE][dA][dE][dE][dE]AY[Sar]W[NMeNle]D[Phe(4-F)]-NH2; N-terminus assumed) | 0.368 ± 0.04 | –
CCCC[C@@H](C(=O)N[C@@H](CC(=O)O)C(=O)N[C@@H](Cc1ccc(C(F)(F)F)cc1)C(N)=O)N(C)C(=O)[C@H](Cc1c[nH]c2ccccc12)NC(=O)CN(C)C(=O)[C@H](Cc1ccc(O)cc1)NC(=O)[C@H](C)NC(=O)[C@@H](CCC(=O)O)NC(=O)[C@@H](CCC(=O)O)NC(=O)[C@@H](CCC(=O)O)NC(=O)[C@@H](C)NC(=O)[C@@H](CCC(=O)O)NC(=O)[C@H](N)CCC(=O)O [P] (H-[dE][dE][dA][dE][dE][dE]AY[Sar]W[NMeNle]D[Phe(4-CF3)]-NH2; N-terminus assumed) | 1.14 | –
CCCC[C@@H](C(=O)N[C@@H](CC(=O)O)C(=O)N[C@@H](Cc1cccc2ccccc12)C(N)=O)N(C)C(=O)[C@H](Cc1c[nH]c2ccccc12)NC(=O)CN(C)C(=O)[C@H](Cc1ccc(O)cc1)NC(=O)[C@H](C)NC(=O)[C@@H](CCC(=O)O)NC(=O)[C@@H](CCC(=O)O)NC(=O)[C@@H](CCC(=O)O)NC(=O)[C@@H](CCC(=O)O)NC(=O)[C@@H](CCC(=O)O)NC(=O)[C@@H](C)N [Peptide A] (H-[dA][dE][dE][dE][dE][dE]AY[Sar]W[NMeNle]D[1Nal]-NH2) | – | loss of binding affinity / activity (D-Ala analogue versus baseline comparative example-1): greater than 10 fold
CCCC[C@@H](C(=O)N[C@@H](CC(=O)O)C(=O)N[C@@H](Cc1cccc2ccccc12)C(N)=O)N(C)C(=O)[C@H](Cc1c[nH]c2ccccc12)NC(=O)CN(C)C(=O)[C@H](Cc1ccc(O)cc1)NC(=O)[C@H](C)NC(=O)[C@@H](CCC(=O)O)NC(=O)[C@@H](CCC(=O)O)NC(=O)[C@@H](CCC(=O)O)NC(=O)[C@@H](C)NC(=O)[C@@H](CCC(=O)O)NC(=O)[C@H](N)CCC(=O)O [Peptide C] (H-[dE][dE][dA][dE][dE][dE]AY[Sar]W[NMeNle]D[1Nal]-NH2) | – | IC50 (D-Ala substituted peptides (Table 2), against [^177Lu]Lu-DOTA-CP04 in A431-CCK-2R cells, read-out: IC50): 0.18 nM; improvement upon the activity of CP04 (versus CP04): greater than 10 fold; affinity exceeding that of the comparative peptide (versus comparative example-1): ~2 fold
CCCC[C@@H](C(=O)N[C@@H](CC(=O)O)C(=O)N[C@@H](Cc1ccc(F)c(F)c1)C(N)=O)N(C)C(=O)[C@H](Cc1c[nH]c2ccccc12)NC(=O)CN(C)C(=O)[C@H](Cc1ccc(O)cc1)NC(=O)[C@H](C)NC(=O)[C@@H](CCC(=O)O)NC(=O)[C@@H](CCC(=O)O)NC(=O)[C@@H](CCC(=O)O)NC(=O)[C@@H](C)NC(=O)[C@@H](CCC(=O)O)NC(=O)[C@H](N)CCC(=O)O [Peptide S] (H-[dE][dE][dA][dE][dE][dE]AY[Sar]W[NMeNle]D[Phe(3,4-F2)]-NH2; N-terminus assumed) | – | IC50: 2.66 ± 0.226 nM
CCCC[C@@H](C(=O)N[C@@H](CC(=O)O)C(=O)N[C@@H](Cc1cccc2ccccc12)C(N)=O)N(C)C(=O)[C@H](Cc1c[nH]c2ccccc12)NC(=O)CN(C)C(=O)[C@H](Cc1ccc(O)cc1)NC(=O)[C@H](C)NC(=O)[C@@H](CCC(=O)O)NC(=O)[C@@H](CCC(=O)O)NC(=O)[C@@H](CCC(=O)O)NC(=O)[C@@H](C)NC(=O)[C@@H](CCC(=O)O)NC(=O)[C@@H](CCC(=O)O)NC(=O)CN1CCN(CC(=O)O)CCN(CC(=O)O)CCN(CC(=O)O)CC1 [^natGa-1, metal not drawn] ({DOTA}-[dE][dE][dA][dE][dE][dE]AY[Sar]W[NMeNle]D[1Nal]-NH2) | – | IC50 [2]: 0.08 nM
CCCC[C@@H](C(=O)N[C@@H](CC(=O)O)C(=O)N(C)[C@@H](Cc1ccccc1)C(N)=O)N(C)C(=O)[C@H](Cc1c[nH]c2ccccc12)NC(=O)CN(C)C(=O)[C@H](Cc1ccc(O)cc1)NC(=O)[C@H](C)NC(=O)[C@@H](CCC(=O)O)NC(=O)[C@@H](CCC(=O)O)NC(=O)[C@@H](CCC(=O)O)NC(=O)[C@@H](C)NC(=O)[C@@H](CCC(=O)O)NC(=O)[C@@H](CCC(=O)O)NC(=O)CN1CCN(CC(=O)O)CCN(CC(=O)O)CCN(CC(=O)O)CC1 [^natGa-2, metal not drawn] ({DOTA}-[dE][dE][dA][dE][dE][dE]AY[Sar]W[NMeNle]D[NMeF]-NH2) | – | IC50 [2]: 0.185 nM

Second part, led by results:

IC50 [1] [nM] | SMILES | further results
1.15 ± 0.096 | CCCC[C@@H](C(=O)N[C@@H](CC(=O)O)C(=O)N[C@@H](Cc1ccc(O)cc1)C(N)=O)N(C)C(=O)[C@H](Cc1c[nH]c2ccccc12)NC(=O)CN(C)C(=O)[C@H](Cc1ccc(O)cc1)NC(=O)[C@H](C)NC(=O)[C@@H](CCC(=O)O)NC(=O)[C@@H](CCC(=O)O)NC(=O)[C@@H](CCC(=O)O)NC(=O)[C@@H](C)NC(=O)[C@@H](CCC(=O)O)NC(=O)[C@H](N)CCC(=O)O [Peptide R] (H-[dE][dE][dA][dE][dE][dE]AY[Sar]W[NMeNle]DY-NH2; N-terminus assumed) | –
1.57 ± 0.089 | CCCC[C@@H](C(=O)N[C@@H](CC(=O)O)C(=O)N[C@@H](Cc1ccc(C#N)cc1)C(N)=O)N(C)C(=O)[C@H](Cc1c[nH]c2ccccc12)NC(=O)CN(C)C(=O)[C@H](Cc1ccc(O)cc1)NC(=O)[C@H](C)NC(=O)[C@@H](CCC(=O)O)NC(=O)[C@@H](CCC(=O)O)NC(=O)[C@@H](CCC(=O)O)NC(=O)[C@@H](C)NC(=O)[C@@H](CCC(=O)O)NC(=O)[C@H](N)CCC(=O)O [Q] (H-[dE][dE][dA][dE][dE][dE]AY[Sar]W[NMeNle]D[Phe(4-CN)]-NH2; N-terminus assumed) | –
0.607 ± 0.052 | CCCC[C@@H](C(=O)N[C@@H](CC(=O)O)C(=O)N[C@@H](Cc1c(F)c(F)c(F)c(F)c1F)C(N)=O)N(C)C(=O)[C@H](Cc1c[nH]c2ccccc12)NC(=O)CN(C)C(=O)[C@H](Cc1ccc(O)cc1)NC(=O)[C@H](C)NC(=O)[C@@H](CCC(=O)O)NC(=O)[C@@H](CCC(=O)O)NC(=O)[C@@H](CCC(=O)O)NC(=O)[C@@H](C)NC(=O)[C@@H](CCC(=O)O)NC(=O)[C@H](N)CCC(=O)O [T] (H-[dE][dE][dA][dE][dE][dE]AY[Sar]W[NMeNle]D[Phe(F5)]-NH2; N-terminus assumed) | –
0.305 ± 0.013 | CCCC[C@@H](C(=O)N[C@@H](CC(=O)O)C(=O)N[C@@H](Cc1cccc(F)c1)C(N)=O)N(C)C(=O)[C@H](Cc1c[nH]c2ccccc12)NC(=O)CN(C)C(=O)[C@H](Cc1ccc(O)cc1)NC(=O)[C@H](C)NC(=O)[C@@H](CCC(=O)O)NC(=O)[C@@H](CCC(=O)O)NC(=O)[C@@H](CCC(=O)O)NC(=O)[C@@H](C)NC(=O)[C@@H](CCC(=O)O)NC(=O)[C@H](N)CCC(=O)O [U] (H-[dE][dE][dA][dE][dE][dE]AY[Sar]W[NMeNle]D[Phe(3-F)]-NH2; N-terminus assumed) | –
0.948 ± 0.052 | CCCC[C@@H](C(=O)N[C@@H](CC(=O)O)C(=O)N[C@@H](Cc1ccc(C(C)=O)cc1)C(N)=O)N(C)C(=O)[C@H](Cc1c[nH]c2ccccc12)NC(=O)CN(C)C(=O)[C@H](Cc1ccc(O)cc1)NC(=O)[C@H](C)NC(=O)[C@@H](CCC(=O)O)NC(=O)[C@@H](CCC(=O)O)NC(=O)[C@@H](CCC(=O)O)NC(=O)[C@@H](C)NC(=O)[C@@H](CCC(=O)O)NC(=O)[C@H](N)CCC(=O)O [V] (H-[dE][dE][dA][dE][dE][dE]AY[Sar]W[NMeNle]D[Phe(4-Ac)]-NH2; N-terminus assumed) | –

— patent US20260077071A1, “Targeted Delivery of Theranostic Agents” (Peter MacCallum Cancer Institute, priority 2022, published 2026)
